pEC50: −log10 of the molar value. The source made the active and inactive calls. The calls are words filed in the database; no cut-off is given here.
What was measured:
Hepatitis B virus [1] = test: Antiviral activity against genotype D HBV infected in sodium taurocholate co-transporting polypeptide receptor-expressing stable HepG2 cell line assessed as suppression of HBsAg level incubated for 5 days by multiplex chemiluminescent MSD assay; assay type: functional, organism-based; details: HepG2, 120 h
[2] = Clearance in Sprague-Dawley rat at […], iv measured after 24 hrs by LC/MS/MS method; assay type: ADME, organism-based; details: in vivo
[3] = Oral bioavailability in Sprague-Dawley rat after 24 hrs by LC/MS/MS method; assay type: ADME, organism-based; details: in vivo
[4] = Lipophilicity, logD of the compound; assay type: physicochemical; details: octanol/water
[5] = In vivo clearance in rat; assay type: ADME, organism-based
[6] = In vivo clearance in dog; assay type: ADME, organism-based, Canis lupus familiaris
[7] = In vivo clearance in cynomolgus monkey; assay type: ADME, organism-based, Macaca fascicularis
[8] = Hepatic extraction in rat; assay type: ADME; details: read-out: ERH
[9] = Hepatic extraction in dog; assay type: ADME, Canis lupus familiaris; details: read-out: ERH
[10] = Hepatic extraction in cynomolgus monkey; assay type: ADME, Macaca fascicularis; details: read-out: ERH
[11] = Oral bioavailability in rat at 5 mg/kg; assay type: ADME, organism-based; details: in vivo
[12] = Oral bioavailability in dog at 5 mg/kg; assay type: ADME, organism-based, Canis lupus familiaris; details: in vivo
[13] = Oral bioavailability in cynomolgus monkey at 5 mg/kg; assay type: ADME, organism-based, Macaca fascicularis; details: in vivo
Hepatitis B virus [14] = test: Antiviral activity against genotype D (AD38-derived) HBV infected in primary human hepatocyte assessed as inhibition of extracellular HBsAg media replaced for every 2 to 3 days incubated for 12 days by multiplex chemiluminescent MSD assay; assay type: functional; details: time 12 day
Hepatitis B virus [15] = test: Antiviral activity against genotype A HBV infected in primary human hepatocyte assessed as reduction in […] replaced for every 2 to 3 days incubated for 12 days by multiplex chemiluminescent MSD assay; assay type: functional, organism-based; details: time 12.0 day
Hepatitis B virus [16] = test: Antiviral activity against genotype B HBV infected in primary human hepatocyte assessed as reduction in […] replaced for every 2 to 3 days incubated for 12 days by multiplex chemiluminescent MSD assay; assay type: functional, organism-based; details: time 12.0 day
Hepatitis B virus [17] = test: Antiviral activity against genotype C HBV infected in primary human hepatocyte assessed as reduction in […] replaced for every 2 to 3 days incubated for 12 days by multiplex chemiluminescent MSD assay; assay type: functional, organism-based; details: time 12.0 day
Hepatitis B virus [18] = test: Antiviral activity against genotype E HBV infected in primary human hepatocyte assessed as reduction in […] replaced for every 2 to 3 days incubated for 12 days by multiplex chemiluminescent MSD assay; assay type: functional, organism-based; details: time 12.0 day
Primary hepatocyte [19] = test: Effect on cccDNA level in HBV infected primary human hepatocyte at 0.25 uM media replaced for every 2 to 3 days incubated for 12 days by Southern blot analysis; assay type: functional, cell-based; details: Hepatitis B virus, time 12.0 day
Primary hepatocyte [20] = test: Effect on cccDNA level in HBV infected primary human hepatocyte at 0.25 uM media replaced for every 2 to 3 days incubated for 12 days in presence of Tenofovir by Southern blot analysis; assay type: functional, cell-based; details: Hepatitis B virus, time 12.0 day
Hepatitis B virus [21] = test: Antiviral activity against HBV genome D integrated human HepG2.2.15 cells assessed as reduction in extracellular HBsAg media replaced for every 2 to 3 days incubated for 7 days; assay type: functional, organism-based; details: time 7.0 day
Hepatitis B virus [22] = test: Antiviral activity against HBV genome D integrated human HepAD38 cells assessed as reduction in extracellular HBsAg media replaced for every 2 to 3 days incubated for 7 days […]; assay type: functional, organism-based; details: time 7.0 day
Hepatitis B virus [23] = test: Antiviral activity against HBV infected in primary human hepatocyte assessed as reduction in intracellular HBsAg protein at 250 nM media replaced for every 2 to 3 days incubated for 14 days by immunofluorescence microscopy; assay type: functional, organism-based; details: time 14.0 day
PBMC = test: Cytotoxicity against human PBMC cells assessed as inhibition of cell viability measured upto 17 uM incubated for 5 days; assay type: toxicity, cell-based; details: 120 h, time 5 day
[24] = Cytotoxicity against rat NRVM cells assessed as inhibition of cell viability measured upto 17 uM incubated for 5 days; assay type: toxicity, cell-based; details: 120 h, time 5 day
MT4 = test: Cytotoxicity against human MT4 cells assessed as inhibition of cell viability measured upto 17 uM incubated for 5 days; assay type: toxicity, cell-based; details: mt4, 120 h, time 5 day
HepG2 = test: Cytotoxicity against human HepG2 cells assessed as inhibition of cell viability measured upto 17 uM incubated for 5 days; assay type: toxicity, cell-based; details: hepg2, 120 h, time 5 day
Huh-7 = test: Cytotoxicity against human Huh-7 cells assessed as inhibition of cell viability measured upto 17 uM incubated for 5 days; assay type: toxicity, cell-based; details: huh-7, 120 h, time 5 day
MRC5 = test: Cytotoxicity against human MRC5 cells assessed as inhibition of cell viability measured upto 17 uM incubated for 5 days; assay type: toxicity, cell-based; details: mrc5, 120 h, time 5 day
PC-3 = test: Cytotoxicity against human PC-3 cells assessed as inhibition of cell viability measured upto 17 uM incubated for 5 days; assay type: toxicity, cell-based; details: pc-3, 120 h, time 5 day
J82 = test: Cytotoxicity against human J82 cells assessed as inhibition of cell viability measured upto 17 uM incubated for 5 days; assay type: toxicity, cell-based; details: j82, 120 h, time 5 day
MG-63 = test: Cytotoxicity against human MG-63 cells assessed as inhibition of cell viability measured upto 17 uM incubated for 5 days; assay type: toxicity, cell-based; details: mg-63, 120 h, time 5 day
A 172 = test: Cytotoxicity against human A-172 cells assessed as inhibition of cell viability measured upto 17 uM incubated for 5 days; assay type: toxicity, cell-based; details: a 172, 120 h, time 5 day
SK-N-AS = test: Cytotoxicity against human SK-N-AS cells assessed as inhibition of cell viability measured upto 17 uM incubated for 5 days; assay type: toxicity, cell-based; details: 120 h, time 5 day
769-P = test: Cytotoxicity against human 769-P cells assessed as inhibition of cell viability measured upto 17 uM incubated for 5 days; assay type: toxicity, cell-based; details: 120 h, time 5 day
A498 = test: Cytotoxicity against human A498 cells assessed as inhibition of cell viability measured upto 17 uM incubated for 5 days; assay type: toxicity, cell-based; details: a498, 120 h, time 5 day
OVCAR-3 = test: Cytotoxicity against human OVCAR-3 cells assessed as inhibition of cell viability measured upto 17 uM incubated for 5 days; assay type: toxicity, cell-based; details: ovcar-3, 120 h, time 5 day
ASPC1 = test: Cytotoxicity against human AsPC1 cells assessed as inhibition of cell viability measured upto 17 uM incubated for 5 days; assay type: toxicity, cell-based; details: aspc1, 120 h, time 5 day
A-375 = test: Cytotoxicity against human A-375 cells assessed as inhibition of cell viability measured upto 17 uM incubated for 5 days; assay type: toxicity, cell-based; details: a-375, 120 h, time 5 day
A204 = test: Cytotoxicity against human A204 cells assessed as inhibition of cell viability measured upto 17 uM incubated for 5 days; assay type: toxicity, cell-based; details: a204, 120 h, time 5 day
AN3-CA = test: Cytotoxicity against human AN3-CA cells assessed as inhibition of cell viability measured upto 17 uM incubated for 5 days; assay type: toxicity, cell-based; details: 120 h, time 5 day
Hepatocyte = test: Cytotoxicity against primary human hepatocyte assessed as change in cell morphology; assay type: toxicity, cell-based; details: hepatocytes
[25] = system: Woodchuck hepatitis virus; test: Antiviral activity against WHV-infected Woodchucks assessed as reduction in WHV sAg level in plasma at 15 mg/kg, po qd for 12 weeks; assay type: functional
Hepatitis B virus [26] = test: In vivo antiviral activity against HBV in model of HBV 1.3.32 mouse harboring integrated greater-than-genome-length HBV transgene assessed as reduction in plasma HBsAg level at 50 mg/kg, sc qd treated for 4 weeks (reference value: 1.1 log10 ng/ml); assay type: functional
Hepatitis B virus [27] = test: In vivo antiviral activity against HBV in model of HBV 1.3.32 mouse harboring integrated greater-than-genome-length HBV transgene assessed as plasma HBsAg level measured in off-treatment recovery phase at 50 mg/kg, sc qd treated for 4 weeks (reference value: 1.1 log10 ng/ml); assay type: functional

With `COCCCOc1cc2c(cc1Cl)-c1cc(=O)c(C(=O)O)cn1N(C(C)(C)C)C2` as the compound, how does the pEC50 (Hepatitis B virus [1]) read?
Its pEC50 is 8.24.

What about the clearance [2] of the same compound?
The clearance was 19.7 mL/min/kg.

And the bioavailability [3]?
The bioavailability was 109%.

What about the logD [4] of the same compound?
The logD was 2.

What about the clearance [5] of the same compound?
Its clearance is 3 mL/min/kg.

And the clearance [6]?
Its clearance is 2.17 mL/min/kg.

What about the clearance [7] of the same compound?
Its clearance is 0.533 mL/min/kg.

What about the hepatic extraction ratio [8] of the same compound?
Its hepatic extraction ratio is 0.043.

What about the hepatic extraction ratio [9] of the same compound?
The hepatic extraction ratio was 0.072.

And the hepatic extraction ratio [10]?
Its hepatic extraction ratio is 0.02.

What about the bioavailability [11] of the same compound?
Its bioavailability is over 100%.

And the bioavailability [12]?
Its bioavailability is over 100%.

What about the bioavailability [13] of the same compound?
Its bioavailability is 48%.

And the “inhibition (INH)” value (Hepatitis B virus [14])?
Its value is 85%.

And the Activity (Hepatitis B virus [15])?
The Activity was “Active”.

And the Activity (Hepatitis B virus [16])?
The Activity was “Active”.

And the Activity (Hepatitis B virus [17])?
The Activity was “Active”.

What about the Activity (Hepatitis B virus [18]) of the same compound?
Its Activity is “Active”.

What about the Activity (Primary hepatocyte [19]) of the same compound?
Its Activity is “inactive”.

What about the Activity (Primary hepatocyte [20]) of the same compound?
Its Activity is “inactive”.

What about the Activity (Hepatitis B virus [21]) of the same compound?
The Activity was “Active”.

What about the Activity (Hepatitis B virus [22]) of the same compound?
Its Activity is “Active”.

And the Activity (Hepatitis B virus [23])?
Its Activity is “Active”.

And the Activity (PBMC)?
Its Activity is “Non-Toxic”.

What about the Activity [24] of the same compound?
Its Activity is “Non-Toxic”.

What about the Activity (MT4) of the same compound?
Its Activity is “Non-Toxic”.

What about the Activity (HepG2) of the same compound?
The Activity was “Non-Toxic”.

What about the Activity (Huh-7) of the same compound?
Its Activity is “Non-Toxic”.

And the Activity (MRC5)?
Its Activity is “Non-Toxic”.

What about the Activity (PC-3) of the same compound?
Its Activity is “Non-Toxic”.

And the Activity (J82)?
Its Activity is “Non-Toxic”.

And the Activity (MG-63)?
The Activity was “Non-Toxic”.

What about the Activity (A 172) of the same compound?
Its Activity is “Non-Toxic”.

What about the Activity (SK-N-AS) of the same compound?
The Activity was “Non-Toxic”.

What about the Activity (769-P) of the same compound?
The Activity was “Non-Toxic”.

And the Activity (A498)?
The Activity was “Non-Toxic”.

And the Activity (OVCAR-3)?
The Activity was “Non-Toxic”.

What about the Activity (ASPC1) of the same compound?
Its Activity is “Non-Toxic”.

And the Activity (A-375)?
The Activity was “Non-Toxic”.

And the Activity (A204)?
Its Activity is “Non-Toxic”.

What about the Activity (AN3-CA) of the same compound?
Its Activity is “Non-Toxic”.

And the Activity (Hepatocyte)?
The Activity was “Non-Toxic”.

What about the Activity [25] of the same compound?
Its Activity is 1.4 log10ng/ml.

What about the Activity (Hepatitis B virus [26]) of the same compound?
Its Activity is 2.2 log10ng/ml.

What about the Activity (Hepatitis B virus [27]) of the same compound?
Its Activity is 0.7 log10ng/ml.

Source: ChEMBL document CHEMBL5335870, “Discovery of Hepatitis B Virus Surface Antigen Suppressor GS-8873” (ACS Med Chem Lett, 2024)
